The subject of data set [1] is Mus musculus. Put plainly: Total plasma concentration in CD1 mouse assessed as (2R,3R,4R,5R,6R)-5-acetamido-4-amino-2,3-difluoro-6-((1R,2R)-1,2,3-trihydroxypropyl)tetrahydro-2H-pyran-2-carboxylic acid at 30 mg/kg, po measured at 20 mins by reversed-phase UPLC/MS analysis. Type of data set: ADME, organism-based. Also noted: dose 30 mg/kg, route oral. Conditions: in vivo.

For data set [2], the system named is Mus musculus. Put plainly: Total plasma concentration in CD1 mouse assessed as (2R,3R,4R,5R,6R)-5-acetamido-4-amino-2,3-difluoro-6-((1R,2R)-1,2,3-trihydroxypropyl)tetrahydro-2H-pyran-2-carboxylic acid at 30 mg/kg, po measured at 60 mins by reversed-phase UPLC/MS analysis. Details: dose 30 mg/kg, route oral. The conditions noted are these: in vivo, 1 h. Type of data set: ADME, organism-based.

Data set [3] in a line: Stability in simulated gastric fluid at 10 uM at pH 1 measured at 15 mins. Type of data set: ADME. The conditions noted are these: read-out: Stability.
Data set [4] in a line: Stability in simulated gastric fluid at 10 uM at pH 1 measured at 60 mins. Type of data set: ADME. The conditions noted are these: read-out: Stability.
The nature of data set [5]: Stability in simulated gastric fluid at 10 uM at pH 4 measured at 15 mins. Type of data set: ADME. The conditions noted are these: read-out: Stability.
Data set [6] in a line: Stability in simulated gastric fluid at 10 uM at pH 4 measured at 60 mins. The class given is ADME. Conditions: read-out: Stability.
Data set [7] can be described thus: Metabolic stability in mouse plasma at 10 uM measured at 15 mins. Type of data set: ADME, cell-free. Conditions: read-out: Stability.
Data set [8] in a line: Metabolic stability in mouse plasma at 10 uM measured at 60 mins. Type of data set: ADME, cell-free. The conditions noted are these: read-out: Stability.
The test system of data set [9] is Mus musculus. In words: Tmax in CD1 mouse assessed as (2R,3R,4R,5R,6R)-5-acetamido-4-amino-2,3-difluoro-6-((1R,2R)-1,2,3-trihydroxypropyl)tetrahydro-2H-pyran-2-carboxylic acid at 30 mg/kg, po. The class given is ADME, organism-based. Details: dose 30 mg/kg, route oral. The conditions noted are these: in vivo.
The test system of data set [10] is Mus musculus. In words: Cmax in CD1 mouse assessed as (2R,3R,4R,5R,6R)-5-acetamido-4-amino-2,3-difluoro-6-((1R,2R)-1,2,3-trihydroxypropyl)tetrahydro-2H-pyran-2-carboxylic acid at 30 mg/kg, po. Type of data set: ADME, organism-based. Also noted: dose 30 mg/kg, route oral. Conditions: in vivo.
Data set [11] deals with Mus musculus. In words: AUC in CD1 mouse assessed as (2R,3R,4R,5R,6R)-5-acetamido-4-amino-2,3-difluoro-6-((1R,2R)-1,2,3-trihydroxypropyl)tetrahydro-2H-pyran-2-carboxylic acid at 30 mg/kg, po. Also noted: dose 30 mg/kg, route oral. Type of data set: ADME, organism-based, Plasma. Conditions: in vivo.
Data set [12] deals with Mus musculus. Put plainly: Oral bioavailability in CD1 mouse assessed as (2R,3R,4R,5R,6R)-5-acetamido-4-amino-2,3-difluoro-6-((1R,2R)-1,2,3-trihydroxypropyl)tetrahydro-2H-pyran-2-carboxylic acid at 30 mg/kg. Type of data set: ADME, organism-based. Conditions: in vivo.

The values below come from ChEMBL document CHEMBL3425436, “Assessing the oral bioavailability of difluorosialic acid prodrugs, potent viral neuraminidase inhibitors, using a snapshot PK screening assay” (Bioorg Med Chem Lett, 2015).

Broadly, the Tmax is the time from dosing to the highest level. Broadly, the Cmax is the peak of the concentration-time curve.

In the case of `COC(=O)[C@]1(F)O[C@@H]([C@H](O)[C@H](O)COC(=O)OCC2c3ccccc3-c3ccccc32)[C@H](NC(C)=O)[C@@H](N)[C@H]1F`, the concentration in data set [1] worked out at 620 nM; in data set [2] it was 750 nM.
With `COC(=O)[C@]1(F)O[C@@H]([C@H](O)[C@H](O)COC(=O)OCC(C)(C)C)[C@H](NC(C)=O)[C@@H](N)[C@H]1F`, the concentration was 2100 nM in data set [1] and 6010 nM in [2].
The corresponding values for `CC(=O)N[C@@H]1[C@@H](N)[C@@H](F)[C@](F)(C(=O)OCCCCCOC(=O)C(C)(C)C)O[C@H]1[C@H](O)[C@H](O)CO` are 1870 nM and 3770 nM.
Turning to `CC(=O)N[C@@H]1[C@@H](N)[C@@H](F)[C@](F)(C(=O)OCCCCCOC(=O)c2ccc3ccccc3c2O)O[C@H]1[C@H](O)[C@H](O)CO`, the concentration was determined as 290 nM in [1] and 800 nM in data set [2].
For `COC(=O)[C@]1(F)O[C@@H]([C@H](O)[C@H](O)COC(=O)OC(C)C)[C@H](NC(C)=O)[C@@H](N)[C@H]1F`, the results for the concentration in data set [1] and in [2] were 1680 nM and 2690 nM, respectively.
The corresponding values for `COC(=O)CNC(=O)[C@]1(F)O[C@@H]([C@H](O)[C@H](O)CO)[C@H](NC(C)=O)[C@@H](N)[C@H]1F` are 2550 nM and 4390 nM.
On to `CC(=O)N[C@@H]1[C@@H](N)[C@@H](F)[C@](F)(C(=O)OCC2CCCCC2)O[C@H]1[C@H](O)[C@H](O)CO`, for which the concentration in data set [1] was 3410 nM; in [2], 4670 nM. The remaining at 0.25 h, 10 µM is 100% in data set [3], 100% in data set [5] and 98% in data set [7]. Further, the remaining at 1 h, 10 µM was 100% in data set [4], 100% in [6] and 64% in data set [8]. The time to peak (Tmax) in data set [9] was determined as 1 h. Further, the peak concentration (Cmax) in data set [10] was determined as 1200 nM. In addition, the AUC in data set [11] was determined as 736 µmol·min. Further, the F in [12] was found to be 9.3%.
As for `CCC1(CC)OC[C@H]([C@@H](O)[C@@H]2O[C@@](F)(C(=O)OC)[C@H](F)[C@H](N)[C@H]2NC(C)=O)O1`, the concentration in data set [1] amounted to 1950 nM; in data set [2] it was 2250 nM.
The corresponding values for `CCCCCCCCOC(=O)[C@]1(F)O[C@@H]([C@H](O)[C@H](O)CO)[C@H](NC(C)=O)[C@@H](N)[C@H]1F` are 3230 nM and 7110 nM.
In the case of `COC(=O)[C@]1(F)O[C@@H]([C@H](O)[C@H](O)COC(=O)OCC(C)C)[C@H](NC(C)=O)[C@@H](N)[C@H]1F`, the concentration in data set [1] was 9930 nM; in data set [2], 11300 nM. The remaining at 0.25 h, 10 µM was 90% in data set [3], 98% in [5] and 81% in [7]. In addition, the remaining at 1 h, 10 µM in [4] was 74%; in data set [6], 86%; in [8] it was 17%. Moreover, in data set [9], the time to peak (Tmax) was determined as 1 h. For the same compound, the Cmax in data set [10] is 2700 nM. Also, the AUC in data set [11] came out at 293 µmol·min. In addition, the F in data set [12] came out at 3.9%.
Consider `COC(=O)[C@]1(F)O[C@@H]([C@H](O)[C@H]2COC3(CCCC3)O2)[C@H](NC(C)=O)[C@@H](N)[C@H]1F`, for which the concentration was determined as 490 nM in [1] and 1690 nM in data set [2].
As for `COC(=O)[C@]1(F)O[C@@H]([C@H](O)[C@H](O)COP(=O)(OC)OC)[C@H](NC(C)=O)[C@@H](N)[C@H]1F`, the concentration in [1] was determined as 960 nM; in [2] it was 620 nM.
In the case of `CC(=O)N[C@@H]1[C@@H](N)[C@@H](F)[C@](F)(C(N)=O)O[C@H]1[C@H](O)[C@H](O)CO`, the concentration in [1] was 710 nM; in data set [2], 3330 nM.
The corresponding values for `CC(=O)N[C@@H]1[C@@H](N)[C@@H](F)[C@](F)(C(=O)NC2CCCCC2)O[C@H]1[C@H](O)[C@H](O)CO` are 1140 nM and 2150 nM.
In the case of `CCCCCOC(=O)[C@]1(F)O[C@@H]([C@H](O)[C@H](O)CO)[C@H](NC(C)=O)[C@@H](N)[C@H]1F`, the concentration in data set [1] is 2740 nM; in data set [2] it was 3500 nM. Also, the remaining at 0.25 h, 10 µM in data set [3] was 99%; in [5], 100%; in data set [7] it was 81%. Also, the remaining at 1 h, 10 µM was 96% in data set [4], 100% in data set [6] and 24% in data set [8]. Further, the Tmax in [9] was determined as 1 h. Besides, the Cmax in [10] was determined as 4700 nM. Further, the AUC in [11] amounted to 462 µmol·min. Besides, in data set [12], the F is listed as 5.5%.
In the case of `CC(=O)N[C@@H]1[C@@H](N)[C@@H](F)[C@](F)(C(=O)OCCC(=O)N(C)C)O[C@H]1[C@H](O)[C@H](O)CO`, the concentration in [1] worked out at 1400 nM; in data set [2], 3750 nM.
In the same order, the values of `CC(=O)N[C@@H]1[C@@H](N)[C@@H](F)[C@](F)(C(=O)NCc2ccccc2)O[C@H]1[C@H](O)[C@H](O)CO` are 270 nM and 590 nM.
The corresponding values for `CC(=O)N[C@@H]1[C@@H](N)[C@@H](F)[C@](F)(C(=O)NCc2cccc(F)c2)O[C@H]1[C@H](O)[C@H](O)CO` are 310 nM and 810 nM.
In the same order, the values of `CC(=O)N[C@@H]1[C@@H](N)[C@@H](F)[C@](F)(C(=O)NCc2ccccc2F)O[C@H]1[C@H](O)[C@H](O)CO` are 660 nM and 840 nM.
Turning to `CCCCCCCCOC(=O)OC[C@@H](O)[C@@H](O)[C@@H]1O[C@@](F)(C(=O)OC)[C@H](F)[C@H](N)[C@H]1NC(C)=O`, the results for the concentration in data set [1] and in data set [2] were 2970 nM and 6880 nM, respectively. For the same compound, the remaining at 0.25 h, 10 µM is 99% in [3] and 94% in data set [5]. Besides, the remaining at 1 h, 10 µM is 90% in data set [4] and 88% in [6]. For the same compound, the Tmax in data set [9] came to 1 h. Moreover, in [10], the Cmax was determined as 4100 nM. The AUC in data set [11] was 452 µmol·min. For the same compound, the F in data set [12] is 6.7%.
Consider `CCCCCCCCCCCCOC(=O)[C@]1(F)O[C@@H]([C@H](O)[C@H](O)CO)[C@H](NC(C)=O)[C@@H](N)[C@H]1F`, for which the concentration in data set [1] stood at 440 nM; in data set [2], 2920 nM.
Regarding `COC(=O)OC[C@@H](O)[C@@H](O)[C@@H]1O[C@@](F)(C(=O)OC)[C@H](F)[C@H](N)[C@H]1NC(C)=O`, the concentration in data set [1] was 90 nM.
With `CC(=O)N[C@@H]1[C@@H](N)[C@@H](F)[C@](F)(C(=O)OCCCOC(=O)C(C)(C)C)O[C@H]1[C@H](O)[C@H](O)CO`, the concentration in data set [1] amounted to 1300 nM; in data set [2] it was 3360 nM.
In the same order, the values of `CC(=O)N[C@@H]1[C@@H](N)[C@@H](F)[C@](F)(C(=O)NCCO)O[C@H]1[C@H](O)[C@H](O)CO` are 690 nM and 1390 nM.
With `CC(=O)N[C@@H]1[C@@H](N)[C@@H](F)[C@](F)(C(=O)OCC(=O)N(C)C)O[C@H]1[C@H](O)[C@H](O)CO`, the concentration came out at 5690 nM in data set [1] and 4390 nM in data set [2]. Further, the remaining at 0.25 h, 10 µM was 53% in data set [3] and 88% in data set [5]. For the same compound, the remaining at 1 h, 10 µM in data set [4] is 25%; in [6], 74%.
`CC(=O)N[C@@H]1[C@@H](N)[C@@H](F)[C@](F)(C(=O)OCCCCC(F)(F)F)O[C@H]1[C@H](O)[C@H](O)CO`: the concentration came out at 2540 nM in data set [1] and 4020 nM in data set [2].
In the same order, the values of `COC(=O)[C@]1(F)O[C@@H]([C@H](O)[C@H]2COC(C(C)C)(C(C)C)O2)[C@H](NC(C)=O)[C@@H](N)[C@H]1F` are 620 nM and 730 nM.
In the same order, the values of `COC(=O)[C@]1(F)O[C@@H]([C@H](O)[C@H]2COC(=O)O2)[C@H](NC(C)=O)[C@@H](N)[C@H]1F` are 350 nM and 730 nM.
In the same order, the values of `CC(=O)N[C@@H]1[C@@H](N)[C@@H](F)[C@](F)(C(=O)OCCCOC(=O)c2ccc3ccccc3c2O)O[C@H]1[C@H](O)[C@H](O)CO` are 250 nM and 300 nM.
In the case of `CCOP(=O)(OCC)OC[C@@H](O)[C@@H](O)[C@@H]1O[C@@](F)(C(=O)OC)[C@H](F)[C@H](N)[C@H]1NC(C)=O`, the concentration in [1] was 1000 nM; in [2], 2550 nM.
The corresponding values for `CCOC(=O)[C@]1(F)O[C@@H]([C@H](O)[C@H](O)CO)[C@H](NC(C)=O)[C@@H](N)[C@H]1F` are 2070 nM and 3580 nM.
As for `CC(=O)N[C@@H]1[C@@H](N)[C@@H](F)[C@](F)(C(=O)OC2CCCC2)O[C@H]1[C@H](O)[C@H](O)CO`, the concentration in [1] came to 1030 nM; in [2], 2880 nM.
Consider `COC(=O)[C@]1(F)O[C@@H]([C@H](O)[C@H]2COC3(CCCCC3)O2)[C@H](NC(C)=O)[C@@H](N)[C@H]1F`, for which the concentration in data set [2] was determined as 390 nM.
